The values below come from ChEMBL document CHEMBL2203166, “Small Molecule Ligands For Active Targeting Of TrkC-expressing Tumor Cells” (ACS Med Chem Lett, 2012).

Active and inactive are the calls of the source. The calls are words filed in the database; no cut-off is given here.

Series [1] is described as follows: Cytotoxicity against CHO cells. Format: cell-based, Cricetulus griseus. Particulars: chinese hamster, read-out: ED50 (the source's name).
A further series relates to MCF7. The series is described as follows: Cytotoxicity against human MCF7 cells. The series is classed as functional, cell-based.
Series [2] relates to NIH3T3. Nature of the series: Cytotoxicity against mouse NIH/3T3 cells expressing TrkC receptor after 56 to 60 hrs by MTT assay. Format: functional, cell-based. In general terms: Tetrazolium assays rely on reduction of a dye to a coloured formazan, in cell work by metabolically active cells.
Series [3] deals with NIH3T3. The series is described as follows: Cytotoxicity against mouse NIH/3T3 cells after 56 to 60 hrs by MTT assay. Format: cell-based. The following applies: for Activity: mouse, nih3t3; for IC50: Mus musculus, NIH3T3.
For another series, the system named is 4T1. The series is described as follows: Cytotoxicity against mouse 4T1 cells expressing TrkC receptor after 30 hrs by Calcein-AM assay. Format: functional, cell-based. Particulars: 4T1, 30 h.
In series [4] the test system is NIH3T3. Nature of the series: Cytotoxicity against mouse NIH/3T3 cells after 56 to 60 hrs by MTT assay in presence of 3.5 nM of growth factor NT3. Format: cell-based.
For series [5], the system named is NIH3T3. The series is described as follows: Cytotoxicity against mouse NIH/3T3 cells after 56 to 60 hrs by MTT assay in presence of 20 uM of IY-IY-TEG. Format: cell-based.
In series [6] the test system is NIH3T3. Nature of the series: Cytotoxicity against mouse NIH/3T3 cells expressing TrkC receptor after 56 to 60 hrs by MTT assay in presence of 20 uM of IY-IY-TEG. Format: functional, cell-based.
The subject of series [7] is NIH3T3. Nature of the series: Cytotoxicity against mouse NIH/3T3 cells expressing TrkC receptor after 56 to 60 hrs by MTT assay in presence of 3.5 nM of growth factor NT3. Format: functional, cell-based.
Setting [8] is: Mus musculus, NIH3T3, read-out: IC50.

Regarding `CCn1cnc2c(=S)nc[nH]c21`, the CC50 in [1] was 600 µM.

Usually IC50 stands for the concentration at which inhibition is half-maximal. Consider `CN(C)c1ccc2c(-c3ccccc3)c3ccc(N(C)C)cc3[o+]c2c1` [ROSAMINE], for which, in the series with MCF7, the IC50 stood at 0.39 µM.

In the case of `CC[C@H](C)[C@H](N)c1cn([C@@H](Cc2ccc(O)cc2)C(=O)N2CCN(c3nc(NCCOCCOCCOCc4cn(CCOCCOCCn5cnc6c(=S)nc[nH]c65)nn4)nc(N4CCN(C(=O)[C@H](Cc5ccc(O)cc5)n5cc([C@@H](N)[C@@H](C)CC)nn5)CC4)n3)CC2)nn1`, the IC50 result with NIH3T3 [2] (nih3t3) was “Active”. Besides, in the series with NIH3T3 [3], the Activity result was “Non-toxic”.

With `CCCCn1cnc2c(=S)nc[nH]c21`, the CC50 in [1] was 400 µM.

Regarding `C#CCOCCOCCOCCNc1nc(N2CCN(C(=O)[C@H](Cc3ccc(O)cc3)n3cc([C@@H](N)[C@@H](C)CC)nn3)CC2)nc(N2CCN(C(=O)[C@H](Cc3ccc(O)cc3)n3cc([C@@H](N)[C@@H](C)CC)nn3)CC2)n1`, the IC50 result in the series on NIH3T3 [2] (nih3t3) was “Not Active”. In addition, in the series with NIH3T3 [3], the Activity result was “Non-toxic”.

On to `S=c1nc[nH]c2c1ncn2CCOCCOCCn1cc(COCCOCCOCCNc2nc(N3CCOCC3)nc(N3CCOCC3)n2)nn1`, for which the IC50 result in the series with NIH3T3 [2] (nih3t3) is on record as “Not Active”. In addition, in the series with NIH3T3 [3], the Activity result is “Non-toxic”.

Regarding `CC[C@H](C)[C@H](N)c1cn([C@@H](Cc2ccc(O)cc2)C(=O)N2CCN(c3nc(NCCOCCOCCOCc4cn(CC#Cc5ccc(-c6c7ccc(=[N+]8CCCCC8)cc-7oc7cc(N8CCCCC8)ccc67)cc5)nn4)nc(N4CCN(C(=O)[C@H](Cc5ccc(O)cc5)n5cc([C@@H](N)[C@@H](C)CC)nn5)CC4)n3)CC2)nn1`, the IC50 in the series on 4T1 is 19.9 µM; with NIH3T3 [2] (setting [8]) it was 15.8 µM; in the series with NIH3T3 [3] it was 27.6 µM. Besides, the Activity result with NIH3T3 [4] and in the series on NIH3T3 [5] was “Toxic” in each case. Besides, the result in the series with NIH3T3 [6] and in the series on NIH3T3 [7] was inactive.

As for `Sc1ncnc2nc[nH]c12` [MERCAPTOPURINE ANHYDROUS], the CC50 in [1] turned out to be 50 µM. Besides, the IC50 in the series on MCF7 is 2.79 µM.

Regarding `CC[C@H](C)[C@@H](C(=O)N1CCN(c2nc(NCCOCCOCCOCc3cn(CC#Cc4ccc(-c5c6ccc(=[N+]7CCCCC7)cc-6oc6cc(N7CCCCC7)ccc56)cc4)nn3)nc(N3CCN(C(=O)[C@H]([C@@H](C)CC)n4cc([C@@H](N)Cc5ccc(O)cc5)nn4)CC3)n2)CC1)n1cc([C@@H](N)Cc2ccc(O)cc2)nn1`, the IC50 with NIH3T3 [2] (setting [8]) and in the series on NIH3T3 [3] was 25.8 µM each time. Further, the Activity result in the series on NIH3T3 [4] and with NIH3T3 [5] was “Toxic” each time. Moreover, the outcome with NIH3T3 [6] and in the series with NIH3T3 [7] was Active.
